The compounds below were run against T1, Btk enzyme (His-tagged, full-length) (Homo sapiens, UniProt Q06187) (assay: Bruton's Tyrosine Kinase (Btk) Inhibition Assay (33P filtration capture)). Details: 100 μM ATP, 30 μM peptide substrate, 30 min at 30° C.
T1 construct: 5-10 nM Btk enzyme (His-tagged, full-length); His
T1 sequence (Q06187 whole entry): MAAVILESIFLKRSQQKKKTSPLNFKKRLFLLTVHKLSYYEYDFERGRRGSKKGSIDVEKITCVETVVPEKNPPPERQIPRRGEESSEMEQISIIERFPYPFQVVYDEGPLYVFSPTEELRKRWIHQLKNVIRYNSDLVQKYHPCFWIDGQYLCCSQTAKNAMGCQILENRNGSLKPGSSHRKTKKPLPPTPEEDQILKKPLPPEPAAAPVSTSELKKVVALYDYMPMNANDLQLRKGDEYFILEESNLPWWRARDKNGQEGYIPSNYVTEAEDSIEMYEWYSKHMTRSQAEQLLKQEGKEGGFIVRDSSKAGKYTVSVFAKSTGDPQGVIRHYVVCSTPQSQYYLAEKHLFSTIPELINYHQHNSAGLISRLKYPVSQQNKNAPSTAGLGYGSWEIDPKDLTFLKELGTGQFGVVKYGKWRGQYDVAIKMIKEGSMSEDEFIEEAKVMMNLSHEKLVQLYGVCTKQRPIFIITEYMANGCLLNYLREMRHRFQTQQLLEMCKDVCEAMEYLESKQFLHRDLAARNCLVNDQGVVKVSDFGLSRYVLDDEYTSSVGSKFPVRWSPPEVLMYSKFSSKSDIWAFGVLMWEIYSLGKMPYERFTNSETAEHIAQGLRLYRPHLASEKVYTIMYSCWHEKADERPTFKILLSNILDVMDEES
Type: biochemical
From the text: Bruton's Tyrosine Kinase (Btk) Inhibition Assay
The assay is a capture of radioactive ^33P phosphorylated product through filtration. The interactions of Btk, biotinylated SH2 peptide substrate (Src homology), and ATP lead to phosphorylation of the peptide substrate. Biotinylated product is bound streptavidin sepharose beads. All bound, radiolabeled products are detected by scintillation counter.
Plates assayed are 96-well polypropylene (Greiner) and 96-well 1.2 μm hydrophilic PVDF filter plates (Millipore). Concentrations reported here are final assay concentrations: 10-100 μM compounds in DMSO (Burdick and Jackson), 5-10 nM Btk enzyme (His-tagged, full-length), 30 μM peptide substrate (Biotin-Aca-AAAEEIYGEI-NH2), 100 μM ATP (Sigma), 8 mM imidazole (Sigma, pH 7.2), 8 mM glycerol-2-phosphate (Sigma), 200 μM EGTA (Roche Diagnostics), 1 mM MnCl2 (Sigma), 20 mM MgCl2 (Sigma), 0.1 mg/ml BSA (Sigma), 2 mM DTT (Sigma), 1 μCi^33P ATP (Amersham), 20% streptavidin sepharose beads (Amersham), 50 mM EDTA (Gibco), 2 M NaCl (Gibco), 2 M NaCl w/1% phosphoric acid (Gibco), microscint-20 (Perkin Elmer).
IC50 determinations are calculated from 10 data points per compound utilizing data produced from a standard 96-well plate assay template. One control compound and seven unknown inhibitors were tested on each plate and each plate was run twice. Typically, compounds were diluted in half-log starting at 100 μM and ending at 3 nM.The control compound was staurosporine. Background was counted in the absence of peptide substrate. Total activity was determined in the presence of peptide substrate. The following protocol was used to determine Btk inhibition. • 1) Sample preparation: The test compounds were diluted at half-log increments in assay buffer (imidazole, glycerol-2-phosphate, EGTA, MnCl2, MgCl2, BSA). • 2) Bead preparation […]
Compound `CN(C)c1ccc2c(c1)CCN(c1cccc(-c3cc(Nc4ccc(C(=O)N5CCOCC5)cn4)c4nccn4n3)c1CO)C2=O` [II-1, 6-Dimethylamino-2-(2-hydroxymethyl-3-{8-[5-(morpholine-4-carbonyl)-pyridin-2-ylamino]-imidazo[1,2-b]pyridazin-6-yl}-phenyl)-3,4-dihydro-2H-isoquinolin-1-one] has an IC50 of less than 10 nM.
In the case of `O=C(c1ccc(Nc2cc(-c3cccc(N4CCc5cc(C6CC6)ccc5C4=O)c3CO)nn3ccnc23)nc1)N1CCOCC1` [II-2, 6-Cyclopropyl-2-(2-hydroxymethyl-3-{8-[5-(morpholine-4-carbonyl)-pyridin-2-ylamino]-imidazo[1,2-b]pyridazin-6-yl}-phenyl)-3,4-dihydro-2H-isoquinolin-1-one], the IC50 is reported as less than 10 nM.
Work on `CN(C)c1ccc2c(c1)CCN(c1cccc(-c3cc(Nc4ccc(C(=O)N5CCOCC5)cn4)c4nccn4c3)c1CO)C2=O` [II-4, 6-Dimethylamino-2-(2-hydroxymethyl-3-{8-[5-(morpholine-4-carbonyl)-pyridin-2-ylamino]-imidazo[1,2-a]pyridin-6-yl}-phenyl)-3,4-dihydro-2H-isoquinolin-1-one] yielded an IC50 of less than 10 nM.

Source: patent US8324211B2, “Inhibitors of bruton's tyrosine kinase” (Roche Palo Alto LLC, priority 2008, dated 2012)
